Results as given in patent publication US20230027026A1, “FUSED PYRIMIDINE COMPOUNDS, COMPOSITIONS AND MEDICINAL APPLICATIONS THEREOF” (JUBILANT BIOSYS LIMITED, priority 2019, published 2023).
pIC50: −log10 of the molar value. Structures can show the parent of a compound that is named as a salt. Where two headings read alike, the source gives them in different places.

Experiments:
Type in all cases: cell-based
[1] = biological target: EGFR (A767_dupASV) expressing Ba/F3 stable cell line (Homo sapiens, UniProt P00533, DUP767-769, cells depend on it); experiment: Cellular proliferation (Alamar Blue) assay, EGFR A767_dupASV Ba/F3; conditions: EGFR A767_dupASV Ba/F3, 72 hr, read-out: A767 IC50
EGFR (A767_dupASV) expressing Ba/F3 stable cell line, sequence (P00533 with tags, fused parts or gaps DUP767-769): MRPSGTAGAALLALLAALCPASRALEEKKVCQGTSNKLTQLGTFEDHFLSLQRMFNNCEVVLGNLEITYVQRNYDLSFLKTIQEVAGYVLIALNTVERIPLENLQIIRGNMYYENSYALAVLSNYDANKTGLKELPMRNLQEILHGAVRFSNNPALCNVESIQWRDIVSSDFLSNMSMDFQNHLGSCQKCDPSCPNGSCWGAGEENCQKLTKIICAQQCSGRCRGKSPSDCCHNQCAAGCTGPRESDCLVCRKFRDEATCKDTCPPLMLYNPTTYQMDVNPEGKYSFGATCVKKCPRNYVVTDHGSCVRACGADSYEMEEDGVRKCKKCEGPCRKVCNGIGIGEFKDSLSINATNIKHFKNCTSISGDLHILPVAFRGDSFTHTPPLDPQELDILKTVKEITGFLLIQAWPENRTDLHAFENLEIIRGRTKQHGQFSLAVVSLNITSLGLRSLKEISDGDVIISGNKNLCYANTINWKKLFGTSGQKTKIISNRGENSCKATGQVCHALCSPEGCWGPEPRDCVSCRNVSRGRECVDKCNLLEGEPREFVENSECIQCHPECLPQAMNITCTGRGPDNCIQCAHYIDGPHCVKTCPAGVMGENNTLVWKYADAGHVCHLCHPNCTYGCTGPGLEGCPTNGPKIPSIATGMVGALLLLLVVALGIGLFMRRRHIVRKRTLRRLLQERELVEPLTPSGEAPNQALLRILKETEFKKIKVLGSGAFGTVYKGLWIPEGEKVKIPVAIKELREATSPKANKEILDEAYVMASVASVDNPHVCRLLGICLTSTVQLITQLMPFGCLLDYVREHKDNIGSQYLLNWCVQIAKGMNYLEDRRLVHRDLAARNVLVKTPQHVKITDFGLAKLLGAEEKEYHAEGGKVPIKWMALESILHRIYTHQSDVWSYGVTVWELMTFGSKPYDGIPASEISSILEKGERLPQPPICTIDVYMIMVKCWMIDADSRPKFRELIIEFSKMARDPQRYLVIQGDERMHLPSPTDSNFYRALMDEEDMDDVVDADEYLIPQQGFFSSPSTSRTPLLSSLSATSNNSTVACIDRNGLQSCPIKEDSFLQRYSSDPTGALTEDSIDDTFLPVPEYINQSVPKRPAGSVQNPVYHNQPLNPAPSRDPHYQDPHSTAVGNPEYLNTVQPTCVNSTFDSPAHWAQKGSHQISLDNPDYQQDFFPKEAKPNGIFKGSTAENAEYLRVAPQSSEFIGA
Method: (§1) Example 3: Cellular Proliferation (Alamar Blue) Assays
(§2) • 1. EGFR(D770_N771insSVD) expressing Ba/F3 stable cell line • 2. EGFR (A767_dupASV) expressing Ba/F3 stable cell line • 3. A431 cells • 4. BTER2 (A775_G776insYVMA) expressing Ba/F3 stable cell line • 5. BTER2 (WT) expressing Ba/F3 stable cell line • 6. BT-474 cells
(§3) • 1. Seed cells at 5000 for A431 and 15,000 cells for Ba/F3 in 100 μL/well in complete media (for A431: DMEM with 10% FBS and for Ba/F3 cells: RPMI with 10% FBS) in 96-well tissue culture plate. Leave outer wells without cells for background measurements. Incubate at 37 degree Celsius in 5% CO2 humidified incubator for 16-18 hours. • 2. Add 0.025 ml of 5× concentration compound dilution or DMSO control. Final compound concentration range is 10-0.0005 μM prepared in 3-fold serial dilutions. Incubate for 72 hr at 37 degree Celsius in […] humidified incubator. • 3. Add 0.0125 mL Alamar Blue™ reagent to each well with multi-channel pipette and tap gently on each side of the plate to mix. Incubate for 3 hours at 37 degree Celsius in […] humidified incubator. • 4. Read plates on fluorescence reader (Tecan Spark Control, Device: Spark, Serial #: 1801006040) at 540 nm excitation, 590 nm emission wavelength. • 5. Data analysis was performed using XLfit 5.5.0.5.

A431 cells = experiment: Cellular proliferation (Alamar Blue) assay, A431; conditions: Homo sapiens; for pIC50: A-431, A431 cells, 72 hr, Alamar Blue, read-out: A431 IC50
Method: as §1, §2, §3

[2] = biological target: EGFR(D770_N771insSVD) expressing Ba/F3 stable cell line (Homo sapiens, UniProt P00533, DUP768-770, cells depend on it); experiment: Cellular proliferation (Alamar Blue) assay, EGFR D770_N771insSVD Ba/F3; conditions: EGFR D770_N771insSVD Ba/F3, 72 hr, read-out: D770 IC50
EGFR(D770_N771insSVD) expressing Ba/F3 stable cell line, sequence (P00533 with tags, fused parts or gaps DUP768-770): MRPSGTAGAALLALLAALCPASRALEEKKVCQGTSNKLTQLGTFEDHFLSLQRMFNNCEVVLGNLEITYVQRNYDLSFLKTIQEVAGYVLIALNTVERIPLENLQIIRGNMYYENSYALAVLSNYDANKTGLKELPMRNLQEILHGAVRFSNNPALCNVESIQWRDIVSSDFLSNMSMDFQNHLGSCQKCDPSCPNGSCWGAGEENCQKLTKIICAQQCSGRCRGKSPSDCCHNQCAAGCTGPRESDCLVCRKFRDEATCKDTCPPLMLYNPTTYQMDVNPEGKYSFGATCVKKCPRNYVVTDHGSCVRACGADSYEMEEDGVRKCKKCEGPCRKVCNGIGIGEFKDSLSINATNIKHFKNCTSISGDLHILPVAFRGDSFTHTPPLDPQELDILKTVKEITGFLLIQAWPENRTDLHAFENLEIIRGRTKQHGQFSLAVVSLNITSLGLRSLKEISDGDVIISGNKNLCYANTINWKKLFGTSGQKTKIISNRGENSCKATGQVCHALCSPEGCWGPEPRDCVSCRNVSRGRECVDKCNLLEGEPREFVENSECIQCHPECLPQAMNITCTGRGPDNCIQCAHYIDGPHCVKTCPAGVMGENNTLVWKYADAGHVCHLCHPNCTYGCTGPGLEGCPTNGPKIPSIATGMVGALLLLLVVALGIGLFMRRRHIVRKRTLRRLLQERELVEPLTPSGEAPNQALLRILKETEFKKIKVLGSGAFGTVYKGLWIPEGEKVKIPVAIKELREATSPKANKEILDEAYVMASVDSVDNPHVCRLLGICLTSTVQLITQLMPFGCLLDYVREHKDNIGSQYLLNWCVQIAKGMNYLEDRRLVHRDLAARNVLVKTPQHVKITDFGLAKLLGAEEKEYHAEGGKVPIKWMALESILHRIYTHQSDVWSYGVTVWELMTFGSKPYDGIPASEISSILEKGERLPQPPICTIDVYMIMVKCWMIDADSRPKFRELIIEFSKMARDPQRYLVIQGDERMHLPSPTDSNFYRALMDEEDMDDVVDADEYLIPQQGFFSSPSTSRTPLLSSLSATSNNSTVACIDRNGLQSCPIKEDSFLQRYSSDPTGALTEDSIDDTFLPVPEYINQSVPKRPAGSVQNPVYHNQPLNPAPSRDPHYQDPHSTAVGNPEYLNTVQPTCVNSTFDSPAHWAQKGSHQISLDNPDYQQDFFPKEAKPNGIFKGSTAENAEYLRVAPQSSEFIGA
Method: as §1, §2, §3

SMILES | GI50 [1] | pIC50 (A431 cells) | GI50 [2] | IC50 (A431 cells; A-431, 72 h, read-out: A431 IC50 (nM))
CN(C)C/C=C/C(=O)Nc1ccc(Cl)c(N2C(=O)N(Cc3ccccc3)Cc3cnc(Nc4cn(C)nc4Cl)nc32)c1 [Compound 86, (E)-N-(3-(3-benzyl-7-((3-chloro-1-methyl-1H-pyrazol-4-yl)amino)-2-oxo-3,4-dihydropyrimido[4,5-d]pyrimidin-1(2H)-yl)-4-chlorophenyl)-4-(dimethylamino)but-2-enamide] | 694 nM | 5.26 | 900 nM | 
CN(C)C/C=C/C(=O)Nc1cccc(N2C(=O)N(Cc3ccccc3)Cc3cnc(Nc4cnn5c4OCCC5)nc32)c1 [Compound 97, (E)-N-(3-(3-benzyl-7-((6,7-dihydro-5H-pyrazolo[5,1-b][1,3]oxazin-3-yl)amino)-2-oxo-3,4-dihydropyrimido[4,5-d]pyrimidin-1(2H)-yl)phenyl)-4-(dimethylamino)but-2-enamide] | 2630 nM | ≤ 5.00 | 2540 nM | 
CN(C)C/C=C/C(=O)Nc1cccc(N2C(=O)N(Cc3ccccc3)Cc3cnc(Nc4cnoc4)nc32)c1 [Compound 58, (E)-N-(3-(3-benzyl-7-(isoxazol-4-ylamino)-2-oxo-3,4-dihydropyrimido[4,5-d]pyrimidin-1(2H)-yl)phenyl)-4-(dimethylamino)but-2-enamide] | 801 nM | ≤ 5.00 | 2110 nM | 
CN(C)C/C=C/C(=O)Nc1cccc(N2C(=O)N(Cc3ccccc3)Cc3cnc(Nc4cn(C)nc4Cl)cc32)c1 [Compound 64, (E)-N-(3-(3-benzyl-7-((3-chloro-1-methyl-1H-pyrazol-4-yl)amino)-2-oxo-3,4-dihydropyrido[4,3-d]pyrimidin-1(2H)-yl)phenyl)-4-(dimethylamino)but-2-enamide] | 809 nM | ≤ 5.00 | 1030 nM | 
CN(C)C/C=C/C(=O)N(C)c1cccc(N2C(=O)N(Cc3ccccc3)Cc3cnc(Nc4cn(C)nc4Cl)nc32)c1 [Compound 63, (E)-N-(3-(3-benzyl-7-((3-chloro-1-methyl-1H-pyrazol-4-yl)amino)-2-oxo-3,4-dihydropyrimido[4,5-d]pyrimidin-1(2H)-yl)phenyl)-4-(dimethylamino)-N-methylbut-2-enamide] | 532 nM | ≤ 5.00 | 1460 nM | 
Cc1cn2cc(Nc3ncc4c(n3)N(c3cccc(NC(=O)/C=C/CN(C)C)c3)C(=O)N(Cc3ccccc3)C4)ccc2n1 [Compound 100, (E)-N-(3-(3-benzyl-7-((2-methylimidazo[1,2-a]pyridin-6-yl)amino)-2-oxo-3,4-dihydropyrimido[4,5-d]pyrimidin-1(2H)-yl)phenyl)-4-(dimethylamino)but-2-enamide] | 2970 nM | ≤ 5.00 | 4810 nM | 
CN(C)C/C=C/C(=O)Nc1cccc(N2C(=O)N(Cc3ccccc3)Cc3cnc(Nc4cnc(N5CCN(C)CC5)nc4)nc32)c1 [Compound 59, (E)-N-(3-(3-benzyl-7-((2-(4-methylpiperazin-1-yl)pyrimidin-5-yl)amino)-2-oxo-3,4-dihydropyrimido[4,5-d]pyrimidin-1(2H)-yl)phenyl)-4-(dimethylamino)but-2-enamide] | 8660 nM | ≤ 5.00 | ≥ 10000 nM | 
COCCn1cc(Nc2ncc3c(n2)N(c2cccc(NC(=O)/C=C/CN(C)C)c2)C(=O)N(Cc2ccccc2)C3)c(Cl)n1 [Compound 92, (E)-N-(3-(3-benzyl-7-((3-chloro-1-(2-methoxyethyl)-1H-pyrazol-4-yl)amino)-2-oxo-3,4-dihydropyrimido[4,5-d]pyrimidin-1(2H)-yl)phenyl)-4-(dimethylamino)but-2-enamide] | 385 nM | ≤ 5.00 | 228 nM | 
C=CC(=O)Nc1ccccc1N1C(=O)N(c2ccccc2)Cc2cnc(Nc3cn(C)nc3Cl)nc21 [Compound 130, N-(2-(7-((3-chloro-1-methyl-1H-pyrazol-4-yl)amino)-2-oxo-3-phenyl-3,4-dihydropyrimido[4,5-d]pyrimidin-1(2H)-yl)phenyl)acrylamide] | ≥ 10000 nM | ≤ 5.00 | 9260 nM | 
C[C@@H](c1ccccc1)N1Cc2cnc(Nc3cnn(C)c3)nc2N(c2cccc(NC(=O)/C=C/CN(C)C)c2)C1=O (single isomer, unassigned) [Compound 134] | 109 nM |  | 103 nM | ≥ 10000 nM
CN(C)C/C=C/C(=O)Nc1cccc(N2C(=O)N(Cc3ccccc3)Cc3cnc(Nc4cnn5cccnc45)nc32)c1 [Compound 90, (E)-N-(3-(3-benzyl-2-oxo-7-(pyrazolo[1,5-a]pyrimidin-3-ylamino)-3,4-dihydropyrimido[4,5-d]pyrimidin-1(2H)-yl)phenyl)-4-(dimethylamino)but-2-enamide] | 1150 nM | ≤ 5.00 | 1850 nM | 
C=CC(=O)Nc1cc(N2C(=O)N(Cc3ccccc3)Cc3cnc(Nc4cn(C)nc4Cl)nc32)ccc1OC(F)(F)F [Compound 78, N-(5-(3-benzyl-7-((3-chloro-1-methyl-1H-pyrazol-4-yl)amino)-2-oxo-3,4-dihydropyrimido[4,5-d]pyrimidin-1(2H)-yl)-2-(trifluoromethoxy)phenyl)acrylamide] | 8370 nM | 5.38 | 8780 nM | 
CN(C)C/C=C/C(=O)Nc1cccc(N2C(=O)N(Cc3ccccc3)Cc3cnc(Nc4ccc5c(c4)ncn5C)nc32)c1 [Compound 102, (E)-N-(3-(3-benzyl-7-((1-methyl-1H-benzo[d]imidazol-5-yl)amino)-2-oxo-3,4-dihydropyrimido[4,5-d]pyrimidin-1(2H)-yl)phenyl)-4-(dimethylamino)but-2-enamide] | 694 nM | ≤ 5.00 | 929 nM | 

Continued by falling GI50 [1], values first:

GI50 [1] | pIC50 (A431 cells) | GI50 [2] | SMILES | IC50 (A431 cells; A-431, 72 h, read-out: A431 IC50 (nM))
322 nM | ≤ 5.00 | 138 nM | CN(C)C/C=C/C(=O)Nc1cccc(N2C(=O)N(Cc3ccccc3)Cc3cnc(Nc4cccc5c4CCN5C4CCN(C)CC4)nc32)c1 [Compound 98, (E)-N-(3-(3-benzyl-7-((1-(1-methylpiperidin-4-yl)indolin-4-yl)amino)-2-oxo-3,4-dihydropyrimido[4,5-d]pyrimidin-1(2H)-yl)phenyl)-4-(dimethylamino)but-2-enamide] | 
269 nM | ≤ 5.00 | 224 nM | COc1ncccc1Nc1ncc2c(n1)N(c1cccc(NC(=O)/C=C/CN(C)C)c1)C(=O)N(Cc1ccccc1)C2 [Compound 103, (E)-N-(3-(3-benzyl-7-((2-methoxypyridin-3-yl)amino)-2-oxo-3,4-dihydropyrimido[4,5-d]pyrimidin-1(2H)-yl)phenyl)-4-(dimethylamino)but-2-enamide trifluoroacetate salt] | 
244 nM | ≤ 5.00 | 341 nM | CN(C)C/C=C/C(=O)Nc1cccc(N2C(=O)N(Cc3ccccc3)Cc3cnc(Nc4ccn(C)n4)nc32)c1 [Compound 52, (E)-N-(3-(3-benzyl-7-((1-methyl-1H-pyrazol-3-yl)amino)-2-oxo-3,4-dihydropyrimido[4,5-d]pyrimidin-1(2H)-yl)phenyl)-4-(dimethylamino)but-2-enamide] | 
115 nM | ≤ 5.00 | 476 nM | CN(C)C/C=C/C(=O)Nc1cccc(N2C(=O)N(Cc3ccc(F)cc3)Cc3cnc(Nc4cn(C)nc4Cl)nc32)c1 [Compound 57, (E)-N-(3-(7-((3-chloro-1-methyl-1H-pyrazol-4-yl)amino)-3-(4-fluorobenzyl)-2-oxo-3,4-dihydropyrimido[4,5-d]pyrimidin-1(2H)-yl)phenyl)-4-(dimethylamino)but-2-enamide] | 
100 nM | ≤ 5.00 | 176 nM | CN(C)C/C=C/C(=O)Nc1cccc(N2C(=O)N(Cc3ccccc3)Cc3cnc(Nc4cn(CC(F)F)nc4Cl)nc32)c1 [Compound 101, (E)-N-(3-(3-benzyl-7-((3-chloro-1-(2,2-difluoroethyl)-1H-pyrazol-4-yl)amino)-2-oxo-3,4-dihydropyrimido[4,5-d]pyrimidin-1(2H)-yl)phenyl)-4-(dimethylamino)but-2-enamide] | 
65 nM | ≤ 5.00 | 107 nM | COc1nn(C)cc1Nc1ncc2c(n1)N(c1cccc(NC(=O)/C=C/CN(C)C)c1)C(=O)N(Cc1ccccc1)C2 [Compound 56, (E)-N-(3-(3-benzyl-7-((3-methoxy-1-methyl-1H-pyrazol-4-yl)amino)-2-oxo-3,4-dihydropyrimido[4,5-d]pyrimidin-1(2H)-yl)phenyl)-4-(dimethylamino)but-2-enamide] | 
58 nM | ≤ 5.00 | 105 nM | CN(C)C/C=C/C(=O)Nc1cccc(N2C(=O)N(Cc3ccc(F)cc3F)Cc3cnc(Nc4cn(C)nc4Cl)nc32)c1 [Compound 61, (E)-N-(3-(7-((3-chloro-1-methyl-1H-pyrazol-4-yl)amino)-3-(2,4-difluorobenzyl)-2-oxo-3,4-dihydropyrimido[4,5-d]pyrimidin-1(2H)-yl)phenyl)-4-(dimethylamino)but-2-enamide] | 
